Patent US20140343000A1 (priority 2011, published 2014)

These molecules were tested on recombinant NL4-3 virus (Renilla luciferase in nef, Gag P373S; NLRluc) in MT-2 cells (assay: whole plant or invertebrate). Conditions: Renilla, NL43, luciferase activity in cells infected for 4-5 days with NLRluc recombinants, serial dilutions of inhibitor; class symbols (key in Table 1); read-out: EC50.
Assay type: cell-based, HIV
Method in brief: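 MT-2 cells infected 4–5 days with NL4-3 carrying Renilla luciferase in nef and Gag P373S, with serial dilutions of inhibitor present. Antiviral activity quantified by luciferase activity, using Dual Luciferase reagents premixed with lysis buffer and read immediately.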

Structure (SMILES) | EC50
C=C(C)[C@@H]1CC[C@]2(NCCC(=O)O)CC[C@]3(C)[C@H](CC[C@@H]4[C@@]5(C)CC=C(c6ccc(C(=O)O)cc6)C(C)(C)[C@@H]5CC[C@]43C)[C@@H]12 [Example B12, 4-((1R,3aS,5aR,5bR,7aR,11aS,11bR,13aR,13bR)-3a-((2-carboxyethyl)amino)-5a,5b,8,8,11a-pentamethyl-1-(prop-1-en-2-yl)-2,3,3a,4,5,5a,5b,6,7,7a,8,11,11a,11b,12,13,13a,13b-octadecahydro-1H-cyclopenta[a]chrysen-9-yl)benzoic acid] | < 0.1 µM
C=C(C)[C@@H]1CC[C@]2(NC(=O)NCCNS(C)(=O)=O)CC[C@]3(C)[C@H](CC[C@@H]4[C@@]5(C)CC=C(c6ccc(C(=O)O)cc6)C(C)(C)[C@@H]5CC[C@]43C)[C@@H]12 [Example 47, 4-((1R,3aS,5aR,5bR,7aR,11aS,11bR,13aR,13bR)-5a,5b,8,8,11a-pentamethyl-3a-(3-(2-(methylsulfonamido)ethyl)ureido)-1-(prop-1-en-2-yl)-2,3,3a,4,5,5a,5b,6,7,7a,8,11,11a,11b,12,13,13a,13b-octadecahydro-1H-cyclopenta[a]chrysen-9-yl)benzoic acid] | < 0.1 µM
C=C(C)[C@@H]1CC[C@]2(NCCN3CCN(S(=O)(=O)c4cccc5ccccc45)CC3)CC[C@]3(C)[C@H](CC[C@@H]4[C@@]5(C)CC=C(c6ccc(C(=O)O)cc6)C(C)(C)[C@@H]5CC[C@]43C)[C@@H]12 [Example B49, 4-((1R,3aS,5aR,5bR,7aR,11aS,11bR,13aR,13bR)-5a,5b,8,8,11a-pentamethyl-3a-((2-(4-(naphthalen-1-ylsulfonyl)piperazin-1-yl)ethyl)amino)-1-(prop-1-en-2-yl)-2,3,3a,4,5,5a,5b,6,7,7a,8,11,11a,11b,12,13,13a,13b-octadecahydro-1H-cyclopenta[a]chrysen-9-yl)benzoic acid] | < 0.1 µM
C=C(C)[C@@H]1CC[C@]2(NC(=O)C(=O)Nc3nccs3)CC[C@]3(C)[C@H](CC[C@@H]4[C@@]5(C)CC=C(c6ccc(C(=O)O)cc6)C(C)(C)[C@@H]5CC[C@]43C)[C@@H]12 [Example 79, 4-((1R,3aS,5aR,5bR,7aR,11aS,11bR,13aR,13bR)-5a,5b,8,8,11a-pentamethyl-3a-(2-oxo-2-(thiazol-2-ylamino)acetamido)-1-(prop-1-en-2-yl)-2,3,3a,4,5,5a,5b,6,7,7a,8,11,11a,11b,12,13,13a,13b-octadecahydro-1H-cyclopenta[a]chrysen-9-yl)benzoic acid] | < 0.1 µM
C=C(C)[C@@H]1CC[C@]2(NC(=O)CN3C[C@@H](C)O[C@@H](C)C3)CC[C@]3(C)[C@H](CC[C@@H]4[C@@]5(C)CC=C(c6ccc(C(=O)O)cc6)C(C)(C)[C@@H]5CC[C@]43C)[C@@H]12 [Example 83, 4-((1R,3aS,5aR,5bR,7aR,11aS,11bR,13aR,13bR)-3a-(2-((2S,6R)-2,6-dimethylmorpholino)acetamido)-5a,5b,8,8,11a-pentamethyl-1-(prop-1-en-2-yl)-2,3,3a,4,5,5a,5b,6,7,7a,8,11,11a,11b,12,13,13a,13b-octadecahydro-1H-cyclopenta[a]chrysen-9-yl)benzoic acid] | < 0.1 µM
C=C(C)[C@@H]1CC[C@]2(NCCNc3ccc(S(C)(=O)=O)cn3)CC[C@]3(C)[C@H](CC[C@@H]4[C@@]5(C)CC=C(c6ccc(C(=O)O)cc6)C(C)(C)[C@@H]5CC[C@]43C)[C@@H]12 [Example 201, 4-((1R,3aS,5aR,5bR,7aR,11aS,11bR,13aR,13bR)-5a,5b,8,8,11a-pentamethyl-3a-(2-(5-(methylsulfonyl)pyridin-2-ylamino)ethylamino)-1-(prop-1-en-2-yl)-2,3,3a,4,5,5a,5b,6,7,7a,8,11,11a,11b,12,13,13a,13b-octadecahydro-1H-cyclopenta[a]chrysen-9-yl)benzoic acid] | < 0.1 µM
C=C(C)[C@@H]1CC[C@]2(NCCN3CCN(S(=O)(=O)c4ccc(C(=O)O)cc4)CC3)CC[C@]3(C)[C@H](CC[C@@H]4[C@@]5(C)CC=C(c6ccc(C(=O)O)cc6)C(C)(C)[C@@H]5CC[C@]43C)[C@@H]12 [Example B51, 4-((4-(2-(((1R,3aS,5aR,5bR,7aR,11aS,11bR,13aR,13bR)-9-(4-carboxyphenyl)-5a,5b,8,8,11a-pentamethyl-1-(prop-1-en-2-yl)-2,3,3a,4,5,5a,5b,6,7,7a,8,11,11a,11b,12,13,13a,13b-octadecahydro-1H-cyclopenta[a]chrysen-3a-yl)amino)ethyl)piperazin-1-yl)sulfonyl)benzoic acid] | < 0.1 µM
C=C(C)[C@@H]1CC[C@]2(NCc3ccco3)CC[C@]3(C)[C@H](CC[C@@H]4[C@@]5(C)CC=C(c6ccc(C(=O)O)cc6)C(C)(C)[C@@H]5CC[C@]43C)[C@@H]12 [Example 155, 4-((1R,3aS,5aR,5bR,7aR,11aS,11bR,13aR,13bR)-3a-(furan-2-ylmethylamino)-5a,5b,8,8,11a-pentamethyl-1-(prop-1-en-2-yl)-2,3,3a,4,5,5a,5b,6,7,7a,8,11,11a,11b,12,13,13a,13b-octadecahydro-1H-cyclopenta[a]chrysen-9-yl)benzoic acid] | < 0.1 µM
C=C(C)[C@@H]1CC[C@]2(NCCNc3cccc(SC)n3)CC[C@]3(C)[C@H](CC[C@@H]4[C@@]5(C)CC=C(c6ccc(C(=O)O)cc6)C(C)(C)[C@@H]5CC[C@]43C)[C@@H]12 [Example 198, 4-((1R,3aS,5aR,5bR,7aR,11aS,11bR,13aR,13bR)-5a,5b,8,8,11a-pentamethyl-3a-(2-(6-(methylthio)pyridin-2-ylamino)ethylamino)-1-(prop-1-en-2-yl)-2,3,3a,4,5,5a,5b,6,7,7a,8,11,11a,11b,12,13,13a,13b-octadecahydro-1H-cyclopenta[a]chrysen-9-yl)benzoic acid] | < 0.1 µM
C=C(C)[C@@H]1CC[C@]2(NCCN3CCN(C(C)=O)CC3)CC[C@]3(C)[C@H](CC[C@@H]4[C@@]5(C)CC=C(c6ccc(C(=O)O)cc6)C(C)(C)[C@@H]5CC[C@]43C)[C@@H]12 [Example B24, 4-((1R,3aS,5aR,5bR,7aR,11aS,11bR,13aR,13bR)-3a-((2-(4-acetylpiperazin-1-yl)ethyl)amino)-5a,5b,8,8,11a-pentamethyl-1-(prop-1-en-2-yl)-2,3,3a,4,5,5a,5b,6,7,7a,8,11,11a,11b,12,13,13a,13b-octadecahydro-1H-cyclopenta[a]chrysen-9-yl)benzoic acid] | < 0.1 µM
C=C(C)[C@@H]1CC[C@]2(NC(=O)NCCCn3ccnc3C)CC[C@]3(C)[C@H](CC[C@@H]4[C@@]5(C)CC=C(c6ccc(C(=O)O)cc6)C(C)(C)[C@@H]5CC[C@]43C)[C@@H]12 [Example 12, 4-((1R,3aS,5aR,5bR,7aR,11aS,11bR,13aR,13bR)-5a,5b,8,8,11a-pentamethyl-3a-(3-(3-(2-methyl-1H-imidazol-1-yl)propyl)ureido)-1-(prop-1-en-2-yl)-2,3,3a,4,5,5a,5b,6,7,7a,8,11,11a,11b,12,13,13a,13b-octadecahydro-1H-cyclopenta[a]chrysen-9-yl)benzoic acid] | < 0.1 µM
C=C(C)[C@@H]1CC[C@]2(NCCN3CCNCC3)CC[C@]3(C)[C@H](CC[C@@H]4[C@@]5(C)CC=C(c6ccc(C(=O)O)cc6)C(C)(C)[C@@H]5CC[C@]43C)[C@@H]12 [Example B20, 4-((1R,3aS,5aR,5bR,7aR,11aS,11bR,13aR,13bR)-5a,5b,8,8,11a-pentamethyl-3a-((2-(piperazin-1-yl)ethyl)amino)-1-(prop-1-en-2-yl)-2,3,3a,4,5,5a,5b,6,7,7a,8,11,11a,11b,12,13,13a,13b-octadecahydro-1H-cyclopenta[a]chrysen-9-yl)benzoic acid] | < 0.1 µM
C=C(C)[C@@H]1CC[C@]2(NC(=O)CN3C(=O)OCc4ccc(Cl)cc43)CC[C@]3(C)[C@H](CC[C@@H]4[C@@]5(C)CC=C(c6ccc(C(=O)O)cc6)C(C)(C)[C@@H]5CC[C@]43C)[C@@H]12 [Example 104, 4-((1R,3aS,5aR,5bR,7aR,11aS,11bR,13aR,13bR)-3a-(2-(7-chloro-2-oxo-2,4-dihydro-1H-benzo[d][1,3]oxazin-1-yl)acetamido)-5a,5b,8,8,11a-pentamethyl-1-(prop-1-en-2-yl)-2,3,3a,4,5,5a,5b,6,7,7a,8,11,11a,11b,12,13,13a,13b-octadecahydro-1H-cyclopenta[a]chrysen-9-yl)benzoic acid] | < 0.1 µM
C=C(C)[C@@H]1CC[C@]2(NCCN3CCN(S(=O)(=O)c4ccc(OC)cc4)CC3)CC[C@]3(C)[C@H](CC[C@@H]4[C@@]5(C)CC=C(c6ccc(C(=O)O)cc6)C(C)(C)[C@@H]5CC[C@]43C)[C@@H]12 [Example B47, 4-((1R,3aS,5aR,5bR,7aR,11aS,11bR,13aR,13bR)-3a-((2-(4-((4-methoxyphenyl)sulfonyl)piperazin-1-yl)ethyl)amino)-5a,5b,8,8,11a-pentamethyl-1-(prop-1-en-2-yl)-2,3,3a,4,5,5a,5b,6,7,7a,8,11,11a,11b,12,13,13a,13b-octadecahydro-1H-cyclopenta[a]chrysen-9-yl)benzoic acid] | < 0.1 µM

Same assay, conditions: Renilla, NL43, luciferase activity in cells infected for 4-5 days with NLRluc recombinants, serial dilutions of inhibitor; numeric values; read-out: EC50

Structure (SMILES) | EC50
C=C(C)[C@@H]1CC[C@]2(NC(=O)N[C@H](CO)C(=O)O)CC[C@]3(C)[C@H](CC[C@@H]4[C@@]5(C)CC=C(c6ccc(C(=O)O)cc6)C(C)(C)[C@@H]5CC[C@]43C)[C@@H]12 [Example 20, 4-((1R,3aS,5aR,5bR,7aR,11aS,11bR,13aR,13bR)-3a-(3-((R)-1-carboxy-2-hydroxyethyl)ureido)-5a,5b,8,8,11a-pentamethyl-1-(prop-1-en-2-yl)-2,3,3a,4,5,5a,5b,6,7,7a,8,11,11a,11b,12,13,13a,13b-octadecahydro-1H-cyclopenta[a]chrysen-9-yl)benzoic acid] | 0.4 µM
